Results taken from patent publication US20240318141A1, “MATURATION AGENT” (Orizuru Therapeutics, Inc., priority 2021, published 2024).
Where “and” joins values, the source holds several entries; their conditions need not be identical. Equal entries are not always repeated.

Tests used:
[1] = test system: non-endocrine cells in insulin-producing cell population (QHJI-I14s04 iPS cell line); test: Cisplatin or docetaxel treatment in step 6), then extended culture in basal medium containing EGF (Example 2); type: cell-based, human
Excerpt: The differentiation of a QHJI-I14s04 iPS cell line into an insulin-producing cell population was induced by the three-dimensional culture method using a bioreactor according to steps 1) to 6) described above and the previous report (Nature Biotechnology 2014; 32: 1121-1133). Specifically, the iPS cells were subjected to the first culture in a medium (DMEM/1% B-27 (INS+)/Penicillin Streptomycin/dimethyl sulfoxide) containing differentiation-inducing factors (GSK3β inhibitor, ROCK inhibitor and low dose of activin A) under conditions causing action of insulin, and subsequently subjected to the second culture in a medium (DMEM/1% B-27 (INS−)/Penicillin Streptomycin/dimethyl sulfoxide) containing a differentiation-inducing factor (low dose of activin A) under conditions causing no action of insulin to obtain a definitive endoderm cell population. Further, a pancreatic endocrine progenitor cell population obtained by the induction of differentiation from the definitive endoderm cell population was cultured in a medium (Improved MEM/1% B-27 (INS+)/Penicillin Streptomycin) containing differentiation-inducing factors (ALK5 inhibitor II, T3, LDN, Y-secretase inhibitor RO, and ascorbic acid) and FGF receptor 1 inhibitor (PD-166866) to obtain an insulin-producing cell population.
An insulin-producing cell population obtained without the addition of cisplatin and docetaxel was used as a control cell population and subjected to extended culture in the same manner as above.
Marker protein expression (PDX1, CHGA, and Ki67) in each insulin-producing cell population before the start of and after the completion of extended culture was measured by flow cytometry. Samples after the completion of extended culture were collected by sampling three times from the same culture container. The number of cells was measured in an automatic cell counter at the time of sample preparation for flow cytometry, and the total number of cells per mL of the bioreactor was calculated. The number of CHGA-positive cells, the number of PDX1-positive and CHGA-negative cells, and the number of PDX1-negative and CHGA-negative cells were calculated from the obtained total number of cells and the flow cytometry results.

[2] = test system: non-endocrine cells in insulin-producing cell population (Ff-I14s04 iPS cell line); test: Extended culture of insulin-producing cell population in basal medium containing EGF (Example 1); type: cell-based, human
Excerpt: The differentiation of a Ff-I14s04 iPS cell line into an insulin-producing cell population was induced by the three-dimensional culture method using a bioreactor and a multiwell plate according to steps 1) to 6) described above and the previous report (Nature Biotechnology 2014; 32: 1121-1133). Specifically, the iPS cells were subjected to the first culture in a medium (DMEM/1% B-27 (INS+)/Penicillin Streptomycin/dimethyl sulfoxide) containing differentiation-inducing factors (GSK3β inhibitor, ROCK inhibitor and low dose of activin A) under conditions causing action of insulin, and subsequently subjected to the second culture in a medium (DMEM/1% B-27 (INS−)/Penicillin Streptomycin/dimethyl sulfoxide) containing a differentiation-inducing factor (low dose of activin A) under conditions causing no action of insulin to obtain a definitive endoderm cell population. Further, a pancreatic endocrine progenitor cell population obtained by the induction of differentiation from the definitive endoderm cell population was cultured in a medium (Improved MEM/1% B-27 (INS+)/Penicillin Streptomycin) containing differentiation-inducing factors (ALK5 inhibitor II, T3, LDN, γ-secretase inhibitor RO, and ascorbic acid) and FGF receptor 1 inhibitor (PD-166866) to obtain an insulin-producing cell population. The exchange from the bioreactor to the multiwell plate was carried out in step 6).
The insulin-producing cell population was subjected to extended culture for 4 weeks in a basal medium (MCDB131/20 mM Glucose/NaHCO3/FAF-BSA/ITS-X/Glutamax/Penicillin Streptomycin). EGF, when added for the purpose of promoting the proliferation of unintended cells, was added at 50 ng/ml (final concentration) to the basal medium for culture.
Marker protein expression (PDX1 and CHGA) in the insulin-producing cell population before the start of and after the completion of extended culture was measured by flow cytometry. Respective samples were collected by sampling from separate culture containers. The number of cells was measured in an automatic cell counter at the time of sample preparation for flow cytometry, and the total number of cells per well of the multiwell plate was calculated. The number of CHGA-positive cells, the number of PDX1-positive and CHGA-negative cells, and the number of PDX1-negative and CHGA-negative cells were calculated from the obtained total number of cells and the flow cytometry results.

[3] = test system: insulin-producing cell population (QHJI-114s04 iPS cell line); conditions: induction of differentiation using medium supplemented with FGF receptor 1 inhibitor; see WO2019/208505; cited from earlier work
[4] = after extended culture 4 weeks, EGF present, average of three samplings
[5] = after extended culture 4 weeks, EGF present, single samplings
[6] = after extended culture involving EGF, with respect to control cell population
[7] = s6d11 (before extended culture); 3 μM cisplatin or 1 μM docetaxel for 7 days from day 4 of step 6)
[8] = after extended culture 4 weeks, EGF present (50 ng/ml)
[9] = extended culture in basal medium containing EGF

With `N.N.[Cl][Pt][Cl]` [Cisplatin, cisplatin] the “The number of cells CHGA+, average” value [1, 4] was 23 ×10^4 cells/mL, the “The number of cells PDX+/CHGA−, average” value [1, 4] was 97 ×10^4 cells/mL and the “The number of cells PDX−/CHGA−, average” value [1, 4] was 5.4 ×10^4 cells/mL. The “Total number of cells, average” value [1, 4] was 125 ×10^4 cells/mL, the “The number of cells CHGA+” value [1, 5] was 24 ×10^4 cells/mL and 21 ×10^4 cells/mL and the “The number of cells PDX+/CHGA−” value [1, 5] was 97 ×10^4 cells/mL and 84 ×10^4 cells/mL and 110 ×10^4 cells/mL. The “The number of cells PDX−/CHGA−” value [1, 5] was 4.5 ×10^4 cells/mL and 4.4 ×10^4 cells/mL and 7.2 ×10^4 cells/mL, the “Total number of cells” value [1, 5] was 125 ×10^4 cells/mL and 109 ×10^4 cells/mL and 141 ×10^4 cells/mL and the “proportion of PDX1-negative and CHGA-negative (PDX1−/CHGA−) cells” value [1, 6] was “drastically decreased”. The “proportion of PDX1-positive and CHGA-negative (PDX1+/CHGA−) cells” value [1, 6] was “no large change”, the “total number of cells after extended culture (in words)” value ([1]; extended culture involving EGF) was “increased” and the “The number of cells CHGA+” value [1, 7] was 88 ×10^4 cells/mL. For the same molecule, the “The number of cells PDX+/CHGA−” value [1, 7] was 2.7 ×10^4 cells/mL, the “The number of cells PDX−/CHGA−” value [1, 7] was 0.3 ×10^4 cells/mL and the “Total number of cells” value [1, 7] was 91 ×10^4 cells/mL. The “number of CHGA-positive endocrine cells after extended culture (in words)” value ([1]; with respect to control cell population) was “not changed”.
In the case of “EGF: epidermal growth factor added at 50 ng/ml to basal medium to promote proliferation of unintended cells”, the “The number of cells CHGA+” value [2, 8] was 128 ×10^4 cells/well and 123 ×10^4 cells/well, the “The number of cells PDX+/CHGA−” value [2, 8] was 27 ×10^4 cells/well and 32 ×10^4 cells/well and the “Total number of cells” value [2, 8] was 198 ×10^4 cells/well and 222 ×10^4 cells/well and 281 ×10^4 cells/well. For the same molecule, the “number of CHGA-positive endocrine cells (in words)” value [2, 9] was “no large change”, the “proportions of PDX1+/CHGA− and PDX1−/CHGA− non-endocrine cells” value [2, 9] was “markedly increased” and the “total number of cells after extended culture (in words)” value [2, 9] was “increased”.
In the case of `COc1cc(OC)cc(-c2cc3cnc(N)nc3nc2NC(=O)NC(C)(C)C)c1` [PD-166866, 1-[2-amino-6-(3,5-dimethoxyphenyl)-pyrido(2,3-d)pyrimidin-7-yl]-3-tert-butylurea], the “abundance of CHGA-negative and Ki67-positive (CHGA−/Ki67+) cells (in words)” value [3] is listed as “drastically reduced”.
